One experiment deals with host bovine bPIN1. Description: Quantitative PCR of host bPIN1 transcripts. In kind it is cell-based. How it is done:
(§1) Total cellular RNAs were extracted using an RNeasy Plus Mini Kit (Qiagen, Hilden, Germany) and parasite RNAs were extracted using the classical Trizol Protocol. cDNA synthesis was performed with the Reverse Transcriptase Superscript III (Invitrogen, CA, USA).
(§2) Quantitative PCR amplification was performed in the ABI 7500 machine (Applied Biosystems, CA, USA) using the Sybr Green reagent (Applied Biosystems, CA, USA) using the primers listed in Table 5 below. The detection of a single product was verified by dissociation curve analysis. Relative quantities of mRNA were analyzed using the delta Ct method. The βactin qPCR was used for normalization. Table 5: qPCR primers

The target of a further experiment is T1, TaPIN Mutant A53P (Theileria annulata, UniProt Q4UG71, A53P).
T1 construct: expressed in transfected cells; host or cells: TBL3 (T. annulata-infected bovine B cells), electroporated with pRev-HA-FLAG-TaPIN A53P-RIL2
As to the kind of experiment: CyclinD1-Luciferase reporter assay, TaPIN Mutant A53P in TBL3 cells. The class given is cell-based, T. annulata. The conditions noted are these: parasite-infected cells (TBL3). The text has this:
After sequencing the TaPIN gene expressed in Buparvaquone-resistant infected cells, the Ala53Pro point mutation identified in said gene was introduced into the pRev-HA-FLAG-TaPIN WT-RIL2 plasmid using the set of primers of sequence SEQ ID NO:41 and SEQ ID NO:42 following a 3-step PCR protocol.
Bovine cells were transfected with the 5xHRE (Staller et al., 2003) or CyclinD1- (Wulf et al., 2001) Luciferase reporters, using electroporation (Neon kit, Invitrogen, CA, USA). Mouse cells were transfected using Lipofectamine 2000 (Invitrogen, CA, USA). Transfections efficiencies were normalized to Renilla activity by co-transfection of a pRL-TK Renilla reporter plasmid (Promega, Ref.: E6241). Luciferase assays were performed 36h post-transfection using the Dual-Luciferase Reporter Assay System (Promega, Ref: E1980) in a microplate luminometer. Relative luminescence was represented as the ratio Firefly/Renilla luminescence, compared with the corresponding empty vector control. The 5xHRE promoter-Luciferase construct was obtained from P Staller (Biotech Research & Innovation Centre, Copenhagen, […]).
(In general: In a reporter assay the amount or activity of a reporter protein is the signal.)

For experiment [1], the system named is FBW7 and c-Jun in TBL3 cells. Description: Immunoblot of FBW7 and c-Jun protein in TBL3 cells. In kind it is cell-based, bovine. Here is the method: (§3) Total proteins were extracted with Laemmli lysis, sonicated: 15 secs ON / 30 secs OFF for 5 min, resolved on 10.5% acrylamide/bis-acrylamide SDS-PAGE gels and transferred to nitrocellulose membranes (Thermo Fisher Scientific, MA, USA) in transfer buffer. Protein transfer was assessed by Ponceau-red staining. Membranes were blocked in Tris-buffered saline pH7.4 containing 0.1% Tween-20 and 5% milk for 1 h at room temperature. Incubations with primary antibodies were carried out at 4°C overnight using antibody dilutions as manufacturer recommendations in Trisbuffered saline pH7.4, 0.05% Tween-20 and 5% milk. Following 1 h incubation with an anti-rabbit or anti-mouse peroxidase-conjugated antibody (Sigma, St Louis, MO, USA) at room temperature, proteins were detected by chemiluminescence (Thermo Fisher Scientific, MA, USA) following the manufacturer's instructions. The following antibodies were used: Rabbit anti-TaPIN (Home-made antibody, Proteogenix, Peptide used: […]-Cys), rabbit anti-PIN1 (Cell Signaling, Ref: 3722), rabbit anti-TaActin (kindly provided by Jake Baum, Australia), rabbit anti-c-Jun (Santa Cruz, CA, USA Ref: sc1694), mouse anti-αTubulin (Sigma, Ref: T9026), , rabbit anti-HIF1α (Abcam, Cambridge, UK; Ref: ab75918), rabbit anti-Hexokinase II (Cell Signaling, Ref: C64G5), rabbit anti-PDK1 (Cell signaling, Ref: C47H1), mouse anti-HA (Roche, Ref: 11583816001), rabbit anti-FBW7 (Bethyl Laboratories, Ref: A301-721A), rabbit anti-Histone H3 (Abcam, Ref: ab1791), rabbit anti-PKM2 (Abcam, Ref: ab38237), mouse anti-Actin (Sigma, Ref: A1978) and monoclonal anti-FLAG M2-Peroxidase (Sigma, Ref: A8592). c-Jun, FBW7 or PKM2/Actin ratios were calculated after Western blot signal quantification with the Plot Lanes Analysis tool of Image J software (National Institutes of Health, Bethesda, MD, USA).
(In general: In western blotting, separated proteins are transferred to a membrane and probed.)

The test system of experiment [2] is transcripts encoding glycolytic enzymes. As to the kind of experiment: Expression of transcripts encoding glycolytic enzymes in Theileria-infected cells. The class given is cell-based, bovine. How it is done: as §1, §2
A further experiment concerns HepG2 cells. As to the kind of experiment: Soft agar colony forming assay, HepG2. In kind it is cell-based, human. The conditions noted are these: number of colonies per plate. Here is the method:
All infected bovine cell lines used in this study were previously described: TBL3 cells were derived from in vitro infection of the spontaneous bovine-B lymphosarcoma cell line, BL3, with Hissar stock of T.annulata. The TpMD409 lymphocyte cell line are infected with T. parva. The culture conditions of these cell lines were previously described by Moreau et al., 1999. Cells were cultured in RPMI 1640 (Gibco-BRL, Paisley, UK), supplemented with 10% heat-inactivated Fetal calf serum, 4mM L-Glutamine, 25mM HEPES, 10µM β-mercaptoethanol and 100µg/ml penicillin/streptomycin in a humidified 5%CO2 atmosphere at 37°C. […] Cell numbers, as judged by Trypan Blue exclusion test, were determined by counting cells using a Countess automated cell counter (Invitrogen, CA, USA). […]
A two-layer soft agar culture system was used. […] Cultures were incubated in humidified 37°C incubators with an atmosphere of 5%CO2 in air, and control plates were monitored for growth using a microscope. At the time of maximum colony formation (10 days in culture), final colony numbers were counted manually after fixation a staining with 0.005% Crystal Violet (Sigma, Ref.: C3886).

Experiment [3] deals with PKM2, HIF1α, Hexokinase II and PDK1 in TBL3 cells. Description: Immunoblot of PKM2, HIF1α, Hexokinase II and PDK1 in TBL3 cells. In kind it is cell-based, bovine. How it is done:
as §3

The next experiment concerns TaPIN transcripts. As to the kind of experiment: Quantitative PCR of TaPIN transcripts in T.annulata-infected cells. The class given is cell-based. Here is the method:
as §1, §2

Here are results for two compounds from patent publication EP2845588A1, “PIN1 inhibitors for use in the prevention and/or treatment of theileriosis, and related applications” (Centre National de la Recherche Scientifique (CNRS), priority 2013, dated 2015).

Structures are written as SMILES.

Turning to `CC(C)(C)C1CCC(CC2=C(O)C(=O)c3ccccc3C2=O)CC1` (stereo not drawn) [Buparvaquone, 2-((4-tert-butylcyclohexyl)methyl)-3-hydroxy-1,4-naphthoquinone], the “level of RNA transcripts encoding the host bovine bPIN1 protein” value in the experiment on host bovine bPIN1 is given as “not affected”. Moreover, the “CyclinD1 promoter activation induced by the TaPIN Mutant A53P” value at TaPIN Mutant A53P is recorded as “no significant effect”. In experiment [1], the FBW7 protein result is reported as “induced” and the c-Jun levels entry was “reduced”. The “expression of the transcripts encoding glycolytic enzymes” value in experiment [2] is listed as “reduced expression”. Besides, in experiment [2] (overexpression of TaPIN A53P), the “drug-induced decrease in glycolytic enzyme expression on overexpression of the TaPIN A53P mutant” value is recorded as “reversed”. For the same compound, the “soft agar colony-forming potential of HepG2 cells” value in the experiment with HepG2 cells is “decreased”. Further, in experiment [3], the HIF1α protein expression entry was “reduced” and the PKM2 protein expression result is on record as “reduced”. Further, in experiment [3] (HIF1α target gene), the “Hexokinase II” value is “reduced” and the PDK1 entry is “reduced”. Besides, the TaPIN transcripts result in the experiment on TaPIN transcripts was “lost”.

Turning to `CCOC(=O)CN1C(=O)c2ccc3c4c(ccc(c24)C1=O)C(=O)N(CC(=O)OCC)C3=O` [PiB, benzo[Imn][3,8]phenanthroline-2,7-diacetic acid, 1,3,6,8-tetrahydro-1,3,6,8-tetraoxo-, diethyl ester], in experiment [1], the FBW7 protein entry is “induced” and the c-Jun levels entry is “reduced”. Further, in experiment [2], the “expression of the transcripts encoding glycolytic enzymes” value is listed as “reduced expression”.
